Reference: ChEMBL document CHEMBL4715697, “Synthesis and biological activity of benzamide DNA minor groove binders” (2016)

Legend:
Type in all cases: functional
COLO 205 = experiment: Growth inhibition of human COLO 205 cells assessed as cell growth at 0.1 uM incubated for 48 hrs by sulforhodamine B assay relative to control; settings: read-out: Activity
A549 = experiment: Growth inhibition of human A549/ATCC cells assessed as cell growth at 0.1 uM incubated for 48 hrs by sulforhodamine B assay relative to control; settings: read-out: Activity
ACHN = experiment: Growth inhibition of human ACHN cells assessed as cell growth at 0.01 uM incubated for 48 hrs by sulforhodamine B assay relative to control; settings: read-out: Activity
RPMI-8226 [1] = experiment: Growth inhibition of human RPMI-8226 cells assessed as cell growth at 0.1 uM incubated for 48 hrs by sulforhodamine B assay relative to control; settings: read-out: Activity
HCT-15 [2] = experiment: Growth inhibition of human HCT-15 cells assessed as cell growth at 0.01 uM incubated for 48 hrs by sulforhodamine B assay relative to control; settings: read-out: Activity
SF-295 = experiment: Growth inhibition of human SF-295 cells assessed as cell growth at 0.1 uM incubated for 48 hrs by sulforhodamine B assay relative to control; settings: read-out: Activity
SF-268 = experiment: Growth inhibition of human SF-268 cells assessed as cell growth at 0.01 uM incubated for 48 hrs by sulforhodamine B assay relative to control; settings: read-out: Activity
IGROV-1 [3] = experiment: Growth inhibition of human IGROV-1 cells assessed as cell growth at 0.01 uM incubated for 48 hrs by sulforhodamine B assay relative to control; settings: read-out: Activity
UACC-257 = experiment: Growth inhibition of human UACC-257 cells assessed as cell growth at 0.1 uM incubated for 48 hrs by sulforhodamine B assay relative to control; settings: read-out: Activity
Hs-578T = experiment: Growth inhibition of human Hs-578T cells assessed as cell growth at 1 uM incubated for 48 hrs by sulforhodamine B assay relative to control; settings: read-out: Activity
HL-60(TB) = experiment: Growth inhibition of human HL-60(TB) cells incubated for 48 hrs by sulforhodamine B assay
RPMI-8226 [4] = experiment: Growth inhibition of human RPMI-8226 cells assessed as cell growth at 100 uM incubated for 48 hrs by sulforhodamine B assay relative to control; settings: read-out: Activity
K562 [5] = experiment: Growth inhibition of human K562 cells assessed as cell growth at 100 uM incubated for 48 hrs by sulforhodamine B assay relative to control; settings: read-out: Activity
Malme-3M = experiment: Growth inhibition of human Malme-3M cells assessed as cell growth at 0.1 uM incubated for 48 hrs by sulforhodamine B assay relative to control; settings: read-out: Activity
U-251 = experiment: Growth inhibition of human U-251 cells incubated for 48 hrs by sulforhodamine B assay
HT-29 = experiment: Growth inhibition of human HT-29 cells assessed as cell growth at 1 uM incubated for 48 hrs by sulforhodamine B assay relative to control; settings: read-out: Activity
CCRF-CEM = experiment: Growth inhibition of human CCRF-CEM cells assessed as cell growth at 1 uM incubated for 48 hrs by sulforhodamine B assay relative to control; settings: read-out: Activity
SK-MEL-2 = experiment: Growth inhibition of human SK-MEL-2 cells assessed as cell growth at 0.1 uM incubated for 48 hrs by sulforhodamine B assay relative to control; settings: read-out: Activity
SR [6] = experiment: Growth inhibition of human SR cells assessed as cell growth at 0.01 uM incubated for 48 hrs by sulforhodamine B assay relative to control; settings: read-out: Activity
OVCAR-5 [7] = experiment: Growth inhibition of human OVCAR-5 cells incubated for 48 hrs by sulforhodamine B assay
SR [8] = experiment: Growth inhibition of human SR cells incubated for 48 hrs by sulforhodamine B assay
OVCAR-5 [9] = experiment: Growth inhibition of human OVCAR-5 cells assessed as cell growth at 1 uM incubated for 48 hrs by sulforhodamine B assay relative to control; settings: read-out: Activity
EKVX = experiment: Growth inhibition of human EKVX cells assessed as cell growth at 1 uM incubated for 48 hrs by sulforhodamine B assay relative to control; settings: read-out: Activity
MCF7 = experiment: Growth inhibition of human MCF7 cells assessed as cell growth at 100 uM incubated for 48 hrs by sulforhodamine B assay relative to control; settings: read-out: Activity
K562 [10] = experiment: Growth inhibition of human K562 cells assessed as cell growth at 0.01 uM incubated for 48 hrs by sulforhodamine B assay relative to control; settings: read-out: Activity
OVCAR-5 [11] = experiment: Growth inhibition of human OVCAR-5 cells assessed as cell growth at 0.01 uM incubated for 48 hrs by sulforhodamine B assay relative to control; settings: read-out: Activity
HCT-15 [12] = experiment: Growth inhibition of human HCT-15 cells incubated for 48 hrs by sulforhodamine B assay
SN12C = experiment: Growth inhibition of human SN12C cells assessed as cell growth at 1 uM incubated for 48 hrs by sulforhodamine B assay relative to control; settings: read-out: Activity
BT-549 = experiment: Growth inhibition of human BT-549 cells assessed as cell growth at 1 uM incubated for 48 hrs by sulforhodamine B assay relative to control; settings: read-out: Activity
HOP-62 = experiment: Growth inhibition of human HOP-62 cells assessed as cell growth at 100 uM incubated for 48 hrs by sulforhodamine B assay relative to control; settings: read-out: Activity
IGROV-1 [13] = experiment: Growth inhibition of human IGROV-1 cells assessed as cell growth at 0.1 uM incubated for 48 hrs by sulforhodamine B assay relative to control; settings: read-out: Activity
LOX IMVI = experiment: Growth inhibition of human LOX IMVI cells assessed as cell growth at 0.01 uM incubated for 48 hrs by sulforhodamine B assay relative to control; settings: read-out: Activity
KM12 = experiment: Growth inhibition of human KM12 cells incubated for 48 hrs by sulforhodamine B assay
SNB-19 [14] = experiment: Growth inhibition of human SNB-19 cells incubated for 48 hrs by sulforhodamine B assay
SNB-19 [15] = experiment: Growth inhibition of human SNB-19 cells assessed as cell growth at 0.1 uM incubated for 48 hrs by sulforhodamine B assay relative to control; settings: read-out: Activity
[16] = read-out: LC50 (the source's name)
[17] = read-out: pLC50 (the source's name) (converted)

CC(=O)Nc1cc(CCl)cc(NC(=O)c2ccc(C(=O)Nc3cccc(NC(=O)CCCN(C)C)c3)cc2)c1
101%: growth at 1 µM (HT-29)
93%: growth at 0.1 µM (UACC-257)
105%: growth at 0.01 µM (ACHN) | growth at 1 µM (SN12C)
81%: growth at 1 µM (EKVX)
96%: growth at 0.01 µM (SR [6]) | growth at 0.01 µM (LOX IMVI)
94%: growth at 0.01 µM (HCT-15 [2])
109%: growth at 1 µM (Hs-578T)
97%: growth at 0.01 µM (K562 [10])
108%: growth at 0.1 µM (COLO 205) | growth at 1 µM (BT-549)
107%: growth at 100 µM (RPMI-8226 [4]) | growth at 1 µM (CCRF-CEM)
95%: growth at 100 µM (HOP-62)
83%: growth at 1 µM (OVCAR-5 [9])
> 100 µM: GI50 (HL-60(TB); read-out: GI50) | LC50 (HL-60(TB); read-out: LC50) | TGI (HL-60(TB); read-out: TGI) | GI50 (HL-60(TB); read-out: pGI50 (converted)) | LC50 (HL-60(TB); read-out: pLC50 (converted)) | TGI (HL-60(TB); read-out: pTGI) | GI50 (U-251; read-out: GI50) | CC50 (U-251; [16]) | TGI (U-251; read-out: TGI) | GI50 (U-251; read-out: pGI50 (converted)) | CC50 (U-251; [17]) | TGI (U-251; read-out: pTGI) | GI50 (OVCAR-5 [7]; read-out: GI50) | LC50 (OVCAR-5 [7]; read-out: LC50) | TGI (OVCAR-5 [7]; read-out: TGI) | GI50 (OVCAR-5 [7]; read-out: pGI50 (converted)) | LC50 (OVCAR-5 [7]; read-out: pLC50 (converted)) | TGI (OVCAR-5 [7]; read-out: pTGI) | GI50 (SR [8]; read-out: GI50) | CC50 (SR [8]; [16]) | TGI (SR [8]; read-out: TGI) | GI50 (SR [8]; read-out: pGI50 (converted)) | CC50 (SR [8]; [17]) | TGI (SR [8]; read-out: pTGI) | GI50 (HCT-15 [12]; read-out: GI50) | CC50 (HCT-15 [12]; [16]) | TGI (HCT-15 [12]; read-out: TGI) | GI50 (HCT-15 [12]; read-out: pGI50 (converted)) | CC50 (HCT-15 [12]; [17]) | TGI (HCT-15 [12]; read-out: pTGI) | GI50 (KM12; read-out: GI50) | CC50 (KM12; [16]) | TGI (KM12; read-out: TGI) | GI50 (KM12; read-out: pGI50 (converted)) | CC50 (KM12; [17]) | TGI (KM12; read-out: pTGI) | GI50 (SNB-19 [14]; read-out: GI50) | CC50 (SNB-19 [14]; [16]) | TGI (SNB-19 [14]; read-out: TGI) | GI50 (SNB-19 [14]; read-out: pGI50 (converted)) | CC50 (SNB-19 [14]; [17]) | TGI (SNB-19 [14]; read-out: pTGI)
27%: growth at 100 µM (MCF7)
113%: growth at 0.1 µM (RPMI-8226 [1]) | growth at 0.01 µM (IGROV-1 [3]) | growth at 0.1 µM (IGROV-1 [13])
111%: growth at 0.1 µM (SK-MEL-2)
104%: growth at 0.1 µM (Malme-3M) | growth at 0.1 µM (SNB-19 [15])
100%: growth at 0.01 µM (SF-268)
106%: growth at 100 µM (K562 [5])
99%: growth at 0.1 µM (A549)
92%: growth at 0.01 µM (OVCAR-5 [11])
74%: growth at 0.1 µM (SF-295)
